≈ marks a conversion by molar mass, not a printed value.

Here are results for one molecule from ChEMBL document CHEMBL5036336, “Structure-Guided Optimization Provides a Series of TTK Protein Inhibitors with Potent Antitumor Activity” (J Med Chem, 2021).

Data set [1] addresses T1, Dual specificity protein kinase TTK (Homo sapiens, UniProt P33981).
T1 sequence (P33981 whole entry): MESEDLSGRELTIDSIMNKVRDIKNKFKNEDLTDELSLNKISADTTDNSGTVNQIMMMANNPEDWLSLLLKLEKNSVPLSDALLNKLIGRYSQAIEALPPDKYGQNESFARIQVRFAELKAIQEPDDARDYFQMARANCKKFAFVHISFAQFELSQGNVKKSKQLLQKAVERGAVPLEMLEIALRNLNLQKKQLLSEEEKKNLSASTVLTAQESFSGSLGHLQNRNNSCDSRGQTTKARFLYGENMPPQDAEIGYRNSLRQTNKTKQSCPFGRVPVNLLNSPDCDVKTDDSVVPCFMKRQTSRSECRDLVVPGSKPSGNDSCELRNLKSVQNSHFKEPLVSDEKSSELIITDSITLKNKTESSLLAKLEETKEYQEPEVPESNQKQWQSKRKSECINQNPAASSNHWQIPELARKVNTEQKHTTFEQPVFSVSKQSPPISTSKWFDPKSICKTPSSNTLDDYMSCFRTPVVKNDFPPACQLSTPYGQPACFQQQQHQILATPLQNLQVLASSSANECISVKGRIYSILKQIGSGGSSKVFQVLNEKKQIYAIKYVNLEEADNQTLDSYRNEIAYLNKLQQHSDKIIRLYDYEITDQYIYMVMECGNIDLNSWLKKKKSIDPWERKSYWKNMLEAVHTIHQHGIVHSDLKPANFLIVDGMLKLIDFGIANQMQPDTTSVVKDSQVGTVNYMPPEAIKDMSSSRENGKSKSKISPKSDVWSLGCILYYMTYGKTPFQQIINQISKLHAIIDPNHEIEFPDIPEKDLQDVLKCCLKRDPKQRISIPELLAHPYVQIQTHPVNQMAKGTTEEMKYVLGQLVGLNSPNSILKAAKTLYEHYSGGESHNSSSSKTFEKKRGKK
Kind of data set: Displacement of kinase tracer 236 from TTK (unknown origin) by LanthaScreen Eu kinase binding assay.

Data set [2] has as its target T2, Leucine-rich repeat serine/threonine-protein kinase 2 (Homo sapiens, UniProt Q5S007). Kind of data set: Inhibition of LRRK2 (unknown origin) at 3 uM by ADAPTA assay relative to control.
Data set [3] concerns CAL-51. Description: Antiproliferative activity against human CAL-51 cells assessed as inhibition of cell proliferation measured after 3 days by Cell Titer-Glo luminescence based assay. The class given is functional. The note with it: CAL-51, 72 h.
A short description of data set [4]: Kinetic solubility of compound in PBS at pH 7.4 at 200 uM incubated for 24 hrs by UPLC/MS analysis. The format is physicochemical. As to conditions: read-out: Kinetic_solubility.
In data set [5] the target is Cytochrome P450 3A4 (Homo sapiens, UniProt P08684). Kind of data set: Inhibition of CYP3A4 in human liver microsomes using […] as substrate incubated for 5 mins in presence of NADPH by LC-MS/MS analysis. The class given is ADME.
The target of data set [6] is T2, Leucine-rich repeat serine/threonine-protein kinase 2. Kind of data set: Inhibition of LRRK2 (unknown origin) by ADAPTA assay.
In data set [7] the target is Leucine-rich repeat serine/threonine-protein kinase 2 (Homo sapiens, UniProt Q5S007, G2019S). Kind of data set: Inhibition of LRRK2 G2019S mutant (unknown origin) by ADAPTA assay.
The target of data set [8] is Testis-specific serine/threonine-protein kinase 2 (Homo sapiens, UniProt Q96PF2). Kind of data set: Inhibition of TSSK2 (unknown origin) by Z-lyte assay.
The species named for data set [9] is Homo sapiens. Description: Selectivity ratio of IC50 for inhibition of N1-SRC (unknown origin) to IC50 for inhibition of TTK (unknown origin).
A short description of data set [10]: Inhibition of KNL1 autophosphorylation at T943 residue in human CAL-51 cells measured after 1 hr by Western blot analysis. The note with it: CAL-51, 1 h. The format is cell-based.
Data set [11] in a line: Clearance in mouse at 2 mg/kg, iv. The format is ADME, organism-based. The note with it: in vivo.
Data set [12] is described as follows: Antitumor activity against human CAL-51 cells xenografted in CB17-SCID mouse assessed as tumor growth inhibition at 30 to 50 mg/kg, iv administered once per week for 16 days relative to control. The class given is functional. The note with it: dose 30-50 mg/kg, time 16 day.
Data set [13] in a line: Toxicity in CB17-SCID mouse xenografted with human TNBC PDX-CAL-51 cells assessed as body weight loss at 80 mg/kg, iv administered once per week for 3 weeks. As to conditions: in vivo, 504 h. The class given is organism-based.
In data set [14] the target is Testis-specific serine/threonine-protein kinase 2 (Homo sapiens) (UniProt Q96PF2). Description: Inhibition of TSSK2 (unknown origin) at 3 uM by Z-lyte assay relative to control.
Data set [15] has as its target Testis-specific serine/threonine-protein kinase 1 (Homo sapiens) (UniProt Q9BXA7). Kind of data set: Inhibition of TSSK1 (unknown origin) at 3 uM by Z-lyte assay relative to control.
Data set [16] has as its target Cytochrome P450 2C8 (Homo sapiens, UniProt P10632). Kind of data set: Time dependent inhibition of CYP2C8 in human liver microsomes. The format is ADME.
For data set [17], the species on record is Homo sapiens. Description: Inhibition of Bombesin receptor (unknown origin) at 10 uM relative to control.
The target in data set [18] is Substance-K receptor (Homo sapiens) (UniProt P21452). Description: Inhibition of Neurokinin NK2 receptor (unknown origin) at 10 uM relative to control.
A short description of data set [19]: Plasma protein binding in mouse. The class given is ADME, cell-free. As to conditions: read-out: PPB.

T2 sequence (Q5S007 whole entry): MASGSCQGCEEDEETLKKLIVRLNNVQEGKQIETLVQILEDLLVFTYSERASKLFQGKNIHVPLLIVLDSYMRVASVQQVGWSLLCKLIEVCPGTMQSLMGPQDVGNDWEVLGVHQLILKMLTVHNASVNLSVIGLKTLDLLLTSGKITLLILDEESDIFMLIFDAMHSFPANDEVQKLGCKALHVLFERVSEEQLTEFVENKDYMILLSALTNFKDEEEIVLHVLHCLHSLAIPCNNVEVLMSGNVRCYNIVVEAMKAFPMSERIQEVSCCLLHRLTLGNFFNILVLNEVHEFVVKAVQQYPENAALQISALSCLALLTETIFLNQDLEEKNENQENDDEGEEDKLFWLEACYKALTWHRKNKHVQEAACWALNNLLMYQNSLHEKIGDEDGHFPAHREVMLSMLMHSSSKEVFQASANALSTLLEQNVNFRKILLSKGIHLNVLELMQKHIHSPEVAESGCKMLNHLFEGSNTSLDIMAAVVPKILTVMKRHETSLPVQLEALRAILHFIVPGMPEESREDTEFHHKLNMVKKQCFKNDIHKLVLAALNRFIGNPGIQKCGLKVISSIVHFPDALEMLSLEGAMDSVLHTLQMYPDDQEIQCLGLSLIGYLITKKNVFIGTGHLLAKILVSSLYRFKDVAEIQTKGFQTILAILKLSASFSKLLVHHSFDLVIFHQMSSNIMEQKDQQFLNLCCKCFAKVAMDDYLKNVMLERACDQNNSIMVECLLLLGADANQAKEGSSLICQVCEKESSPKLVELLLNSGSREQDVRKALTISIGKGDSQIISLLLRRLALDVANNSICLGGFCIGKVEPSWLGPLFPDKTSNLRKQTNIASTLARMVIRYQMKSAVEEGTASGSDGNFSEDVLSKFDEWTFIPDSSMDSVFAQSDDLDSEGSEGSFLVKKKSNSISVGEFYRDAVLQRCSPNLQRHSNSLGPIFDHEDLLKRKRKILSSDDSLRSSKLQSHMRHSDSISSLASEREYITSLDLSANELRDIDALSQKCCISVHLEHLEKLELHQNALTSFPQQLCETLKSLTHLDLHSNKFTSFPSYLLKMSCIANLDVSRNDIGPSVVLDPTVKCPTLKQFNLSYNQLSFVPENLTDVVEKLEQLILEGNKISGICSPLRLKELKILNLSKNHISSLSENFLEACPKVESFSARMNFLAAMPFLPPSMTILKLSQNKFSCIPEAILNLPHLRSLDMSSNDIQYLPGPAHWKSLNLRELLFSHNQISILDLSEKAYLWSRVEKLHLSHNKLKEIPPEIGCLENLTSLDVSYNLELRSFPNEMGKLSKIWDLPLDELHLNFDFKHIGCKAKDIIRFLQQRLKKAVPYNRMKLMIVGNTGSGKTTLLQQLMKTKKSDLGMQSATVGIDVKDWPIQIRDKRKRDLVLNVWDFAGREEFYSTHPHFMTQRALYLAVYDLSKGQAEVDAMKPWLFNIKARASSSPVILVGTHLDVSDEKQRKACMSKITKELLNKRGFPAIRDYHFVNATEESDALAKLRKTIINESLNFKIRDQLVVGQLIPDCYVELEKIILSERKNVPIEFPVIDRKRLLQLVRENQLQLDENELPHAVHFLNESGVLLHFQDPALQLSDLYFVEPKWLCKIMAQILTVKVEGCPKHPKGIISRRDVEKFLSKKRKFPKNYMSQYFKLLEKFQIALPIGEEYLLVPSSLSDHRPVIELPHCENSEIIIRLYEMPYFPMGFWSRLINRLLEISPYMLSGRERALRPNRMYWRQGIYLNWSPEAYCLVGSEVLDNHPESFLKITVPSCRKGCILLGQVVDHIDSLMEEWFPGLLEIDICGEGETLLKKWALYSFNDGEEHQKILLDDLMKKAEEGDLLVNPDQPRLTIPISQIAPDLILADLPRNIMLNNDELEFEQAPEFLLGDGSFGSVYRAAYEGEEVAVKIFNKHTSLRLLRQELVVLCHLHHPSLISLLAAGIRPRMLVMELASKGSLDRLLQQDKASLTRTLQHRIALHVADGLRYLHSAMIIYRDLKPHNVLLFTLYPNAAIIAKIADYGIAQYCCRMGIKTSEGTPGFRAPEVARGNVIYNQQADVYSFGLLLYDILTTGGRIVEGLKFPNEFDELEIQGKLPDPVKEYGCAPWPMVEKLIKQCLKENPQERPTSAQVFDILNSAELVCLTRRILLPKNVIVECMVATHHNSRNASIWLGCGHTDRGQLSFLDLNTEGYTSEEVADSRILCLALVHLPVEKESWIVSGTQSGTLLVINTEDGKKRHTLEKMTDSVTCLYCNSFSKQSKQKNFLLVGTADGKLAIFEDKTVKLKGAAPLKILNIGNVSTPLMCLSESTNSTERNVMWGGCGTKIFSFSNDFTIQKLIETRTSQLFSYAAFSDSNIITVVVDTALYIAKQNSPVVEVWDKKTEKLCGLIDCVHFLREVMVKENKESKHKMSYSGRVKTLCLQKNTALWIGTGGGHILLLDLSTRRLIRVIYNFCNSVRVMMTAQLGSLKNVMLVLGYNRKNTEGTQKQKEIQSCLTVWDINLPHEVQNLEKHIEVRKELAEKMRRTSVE
Sequence of Substance-K receptor (Homo sapiens) (P21452 whole entry): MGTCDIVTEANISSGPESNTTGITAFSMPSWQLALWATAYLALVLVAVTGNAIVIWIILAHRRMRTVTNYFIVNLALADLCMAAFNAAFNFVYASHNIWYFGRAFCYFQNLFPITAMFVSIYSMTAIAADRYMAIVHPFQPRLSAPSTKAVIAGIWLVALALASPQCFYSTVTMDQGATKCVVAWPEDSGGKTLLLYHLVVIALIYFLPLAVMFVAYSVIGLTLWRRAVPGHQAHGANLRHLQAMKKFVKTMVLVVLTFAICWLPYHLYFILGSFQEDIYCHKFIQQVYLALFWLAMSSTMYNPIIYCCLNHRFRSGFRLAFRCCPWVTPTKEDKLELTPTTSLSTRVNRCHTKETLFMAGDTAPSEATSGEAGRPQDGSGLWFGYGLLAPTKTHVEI
Sequence of Testis-specific serine/threonine-protein kinase 2 (Homo sapiens) (Q96PF2 whole entry): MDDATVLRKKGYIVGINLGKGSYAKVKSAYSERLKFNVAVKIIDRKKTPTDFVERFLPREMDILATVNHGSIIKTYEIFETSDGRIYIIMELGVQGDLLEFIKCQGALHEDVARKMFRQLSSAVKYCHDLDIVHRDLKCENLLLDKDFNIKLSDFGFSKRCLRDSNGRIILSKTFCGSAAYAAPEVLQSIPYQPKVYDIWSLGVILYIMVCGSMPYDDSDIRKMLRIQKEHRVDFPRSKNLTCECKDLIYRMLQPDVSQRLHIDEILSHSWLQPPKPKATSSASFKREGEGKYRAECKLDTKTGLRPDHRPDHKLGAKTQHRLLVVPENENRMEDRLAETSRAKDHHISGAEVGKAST
Sequence of Testis-specific serine/threonine-protein kinase 2 (Q96PF2 whole entry): as above
Sequence of Cytochrome P450 2C8 (P10632 whole entry): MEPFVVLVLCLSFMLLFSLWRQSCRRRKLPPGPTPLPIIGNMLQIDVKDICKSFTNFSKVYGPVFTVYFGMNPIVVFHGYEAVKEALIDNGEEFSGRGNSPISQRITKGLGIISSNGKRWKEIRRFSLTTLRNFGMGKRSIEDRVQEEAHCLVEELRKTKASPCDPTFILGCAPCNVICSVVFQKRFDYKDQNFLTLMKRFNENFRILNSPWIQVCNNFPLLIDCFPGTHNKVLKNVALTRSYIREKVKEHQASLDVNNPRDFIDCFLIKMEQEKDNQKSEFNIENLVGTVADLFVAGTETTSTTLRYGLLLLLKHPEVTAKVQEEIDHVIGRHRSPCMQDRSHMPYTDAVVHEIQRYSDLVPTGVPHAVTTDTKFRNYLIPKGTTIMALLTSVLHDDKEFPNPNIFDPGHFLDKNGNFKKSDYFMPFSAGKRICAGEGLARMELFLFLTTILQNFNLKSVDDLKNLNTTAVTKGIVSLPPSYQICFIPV
Sequence of Testis-specific serine/threonine-protein kinase 1 (Homo sapiens) (Q9BXA7 whole entry): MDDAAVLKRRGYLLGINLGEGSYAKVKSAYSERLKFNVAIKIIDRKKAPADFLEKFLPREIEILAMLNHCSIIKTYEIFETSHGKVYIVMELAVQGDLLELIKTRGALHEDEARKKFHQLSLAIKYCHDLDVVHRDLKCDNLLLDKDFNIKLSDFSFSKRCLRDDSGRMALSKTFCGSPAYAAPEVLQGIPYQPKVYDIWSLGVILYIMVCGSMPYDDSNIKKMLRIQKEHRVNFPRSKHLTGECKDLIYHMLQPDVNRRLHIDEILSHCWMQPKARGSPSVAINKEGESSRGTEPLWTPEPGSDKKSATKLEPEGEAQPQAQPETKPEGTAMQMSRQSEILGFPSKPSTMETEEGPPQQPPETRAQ
Sequence of Cytochrome P450 3A4 (P08684 whole entry): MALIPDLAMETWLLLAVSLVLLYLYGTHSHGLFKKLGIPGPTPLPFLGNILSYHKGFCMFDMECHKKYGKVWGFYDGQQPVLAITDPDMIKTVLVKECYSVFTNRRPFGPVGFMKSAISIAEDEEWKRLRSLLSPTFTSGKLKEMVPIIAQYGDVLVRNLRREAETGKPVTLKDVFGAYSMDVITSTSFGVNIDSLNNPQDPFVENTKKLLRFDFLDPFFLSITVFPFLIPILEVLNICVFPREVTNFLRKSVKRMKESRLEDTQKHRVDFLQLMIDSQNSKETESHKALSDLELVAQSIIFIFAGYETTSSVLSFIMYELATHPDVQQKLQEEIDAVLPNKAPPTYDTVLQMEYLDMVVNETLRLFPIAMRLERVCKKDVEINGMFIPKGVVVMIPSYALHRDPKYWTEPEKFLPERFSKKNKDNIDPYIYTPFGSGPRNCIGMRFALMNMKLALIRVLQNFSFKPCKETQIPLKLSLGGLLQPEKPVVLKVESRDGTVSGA
Sequence of Leucine-rich repeat serine/threonine-protein kinase 2 (Homo sapiens, UniProt Q5S007, G2019S) (Q5S007 whole entry G2019S): as the sequence (Q5S007 whole entry) above, with G2019S counted along it

With `CCc1cccc(CC)c1N1CCn2cc(-c3nc(Nc4ccc(N5CCC(C(=O)N6CC7(CN(C)C7)C6)CC5)cc4OC)nc4[nH]ccc34)cc2C1=O`, the half-maximal inhibitory concentration (IC50) was 3 nM in [1]; 16 nM in data set [3]; over 5000 nM in data set [5]; 342 nM in data set [6]; 229 nM in data set [7]; 944 nM in [8]. The IC50 in data set [10] was 48 nM; in data set [16], over 30000 nM. The inhibition is over 80% in data set [2]; over 80% in data set [14]; over 80% in data set [15]; 80% in data set [17]; 80% in data set [18]. Moreover, in [4], the solubility kinetic at 24 h, 200 µM was 180 µM (≈ 131 µg/mL). Further, in data set [9], the Ratio IC50 stood at 433. For the same molecule, the clearance in data set [11] was 8.8 mL/min/kg. In [12], the tumour growth inhibition (TGI) is over 60%. In addition, the Activity result in data set [13] is given as “Non-Toxic”. In addition, in data set [19], the fraction unbound was under 0.01.
